Experimental data published in patent US11098041B2 (Merck Patent GmbH, priority 2014, dated 2021).

Assays:
[1] = target: BTK C481S (His-TEV-hsBTK(328-659)(C481S)) (Homo sapiens (Human), UniProt Q06187, C481S); test: Assay B: microfluidic off-chip mobility shift assay against BTK C481S enzyme; format: biochemical; settings: BTK C481S mutant
In short: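 Substrate-to-phosphopeptide conversion quantified by microfluidic mobility shift with laser-induced fluorescence; IC50 and efficacy from log[inhibitor] vs. % activity.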

full-length human BTK = full-length human BTK (Homo sapiens (Human), UniProt Q06187); test: Assay A: microfluidic off-chip mobility shift assay against BTK enzyme; format: biochemical
Sequence of full-length human BTK (Q06187 whole entry): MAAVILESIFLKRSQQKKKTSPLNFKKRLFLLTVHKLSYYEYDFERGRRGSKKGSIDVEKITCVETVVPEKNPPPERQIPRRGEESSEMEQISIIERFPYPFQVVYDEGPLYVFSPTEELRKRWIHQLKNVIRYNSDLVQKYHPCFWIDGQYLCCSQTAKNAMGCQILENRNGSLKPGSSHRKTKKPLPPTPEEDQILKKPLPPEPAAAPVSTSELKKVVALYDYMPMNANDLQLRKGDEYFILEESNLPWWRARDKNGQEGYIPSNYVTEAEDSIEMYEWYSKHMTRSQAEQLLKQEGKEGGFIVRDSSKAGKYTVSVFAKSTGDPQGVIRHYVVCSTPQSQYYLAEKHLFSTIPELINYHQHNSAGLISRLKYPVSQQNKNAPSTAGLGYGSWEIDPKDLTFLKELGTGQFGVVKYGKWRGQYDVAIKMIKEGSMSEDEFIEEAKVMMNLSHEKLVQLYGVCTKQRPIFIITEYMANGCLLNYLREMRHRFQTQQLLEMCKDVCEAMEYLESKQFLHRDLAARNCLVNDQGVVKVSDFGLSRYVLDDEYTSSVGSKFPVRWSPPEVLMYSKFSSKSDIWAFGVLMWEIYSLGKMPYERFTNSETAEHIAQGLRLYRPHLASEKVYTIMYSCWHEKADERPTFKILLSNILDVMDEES

LCK = LCK (Homo sapiens (Human), UniProt P06239); test: Assay E: LCK biochemical assay (HotSpot Kinase Assay); settings: for inhibition at 1 µM: read-out: LCK % inhibition at 1 uM test concentration (Assay E)
Sequence of LCK (P06239 whole entry): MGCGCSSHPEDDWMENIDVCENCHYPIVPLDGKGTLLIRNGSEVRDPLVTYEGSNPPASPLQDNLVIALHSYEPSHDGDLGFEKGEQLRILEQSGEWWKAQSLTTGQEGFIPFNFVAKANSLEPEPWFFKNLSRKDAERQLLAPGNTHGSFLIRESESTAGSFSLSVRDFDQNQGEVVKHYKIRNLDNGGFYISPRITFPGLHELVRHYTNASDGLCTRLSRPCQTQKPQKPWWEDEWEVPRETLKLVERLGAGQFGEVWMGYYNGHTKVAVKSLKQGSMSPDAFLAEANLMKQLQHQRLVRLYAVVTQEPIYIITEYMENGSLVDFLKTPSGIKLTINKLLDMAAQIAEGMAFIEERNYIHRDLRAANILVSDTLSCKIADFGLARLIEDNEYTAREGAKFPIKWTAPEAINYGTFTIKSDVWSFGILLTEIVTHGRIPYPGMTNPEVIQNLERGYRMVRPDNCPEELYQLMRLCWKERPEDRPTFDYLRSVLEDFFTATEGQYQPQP
Method: Assay E: LCK Biochemical Assay
The standard protocol below describes the standard HotSpot Kinase Assay run by the Reaction Biology Corporation as a service.
The substrate (poly(EY) (Glu:Tyr (4:1)) and the cofactors were prepared in fresh Reaction Buffer (20 mM Hepes (pH 7.5), 10 mM MgCl2, 2 mM MnCl2, 1 mM EGTA, 0.02% Brij35, 0.02 mg/ml BSA, 0.1 mM Na3VO4, 2 mM DTT, 2% DMSO). To the substrate solution was then added the enzyme (LCK; recombinant human full-length (Genbank Accession #NP_005347); C-terminal His-tagged, expressed in insect cells), and the resulting solution was then gently mixed. The test compounds were dissolved in DMSO and then delivered into the kinase reaction mixture using acoustic liquid handling technology (Echo550; nanoliter range). The reaction mixture was incubated for 20 min at RT and then treated with ^33P-ATP to initiate the reaction. After 2 hours of incubation at RT, kinase activity was detected using Reaction Biology Corporation's proprietary P81 filter-binding method.

[2] = test system: anti-IgM-induced expression of CD69 on CD19 positive cells (B cells) in human PBMCs; test: Assay C: PBMC IC50 assay (anti-IgM-induced CD69 expression); format: cell-based; settings: anti-IgM stimulation
In short: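 Freshly isolated human PBMCs (2.5×10^5/well) pretreated 1 h with compound, then stimulated overnight (~16-18 h) with goat F(ab′)2 anti-human IgM. CD69 on CD19+ B cells measured by flow cytometry; IC50 from percentage CD69+ B cells versus concentration.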

[3] = test system: IL-1β release by human THP-1 cells; test: Assay D: THP-1 cells IL-1β release ELISA assay; format: cell-based; settings: PMA and LPS, BzATP stimulation
Method: Assay D: THP-1 Cells IL-1β release ELISA Assay
The assay measures IL-1β release by human THP-1 cells after treatment with PMA and LPS in response to BzATP stimulation in order to evaluate the potency of P2X7 inhibitors. THP-1 cells (2×10^5 cells/mL) in culture medium (RPMI1640 (Gibco, #22400-089)+10% HI-FBS (Gibco, #10082-147)+1% L-Glutamine (Gibco, #25030)+1% Pen/Strep (Gibco, #15140) complemented with 0.5 μM PMA (Sigma, #P8139) were incubated for 30 min at 37° C. At the end of the incubation time, the cells were titrated and washed gently in PBS. The cells were then re-suspended to a density of 1.5×10^5 cell/mL in culture medium complemented with 10 ng/mL LPS (Sigma, #L5293). The cell suspension was dispensed (40 μL/well) into a Corning 384-well plate. After 4 hr of incubation at 37° C., the cells were treated with 20 μL of test compounds at various concentrations. The plate was incubated for 30 min at 37° C. and then the cells were treated with 20 μL of 3.2 mM BzATP (Sigma. #B6396) (0.8 mM final concentration). The plate was incubated for an additional 30 min at 37° C., and then subjected to centrifugation (4 min, 1000 rpm). Supernatant (60 μL) from each well was transferred to a 384-matrix PP plate. The plate was then stored at 4° C. (overnight) or −20° C. for longer term storage. The next day, the […] were measured using a human […] ELISA Kit (R & D systems, catalog #DY201) and read using a SpectraMax Plus 384 Microplate Reader.

Sequence of BTK C481S (His-TEV-hsBTK(328-659)(C481S)) (Q06187 328-659 C481S): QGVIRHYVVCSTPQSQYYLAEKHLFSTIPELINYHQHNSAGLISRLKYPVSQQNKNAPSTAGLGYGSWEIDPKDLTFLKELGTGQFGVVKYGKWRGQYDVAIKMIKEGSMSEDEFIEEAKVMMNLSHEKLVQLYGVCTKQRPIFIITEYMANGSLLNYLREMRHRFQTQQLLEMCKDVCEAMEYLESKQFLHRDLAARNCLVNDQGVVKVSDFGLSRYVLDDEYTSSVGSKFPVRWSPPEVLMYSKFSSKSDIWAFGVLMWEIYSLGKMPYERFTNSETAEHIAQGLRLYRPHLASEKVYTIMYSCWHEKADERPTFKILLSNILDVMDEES

Compound	IC50 [1] [nM]	IC50 (full-length human BTK) [nM]	inhibition at 1 µM (LCK) [%]	IC50 [2] [nM]	IC50 [3] [nM]	IC50 (LCK) [µM]
Cn1cc(-c2nc3c(-c4ccc(CNC(=O)c5ccc(C(C)(C)C)cc5)c(C(F)(F)F)c4)ccnc3[nH]2)cn1 [Example 108, 4-tert-Butyl-N-{4-[2-(1-methyl-1H-pyrazol-4-yl)-3H-imidazo[4,5-b]pyridin-7-yl]-2-trifluoromethyl-benzyl}-benzamide]	< 100	< 100	17	< 100	–	–
Cc1c(NC(=O)c2ccc(C(C)(C)C)cc2)cccc1-c1ccnc2[nH]c(-c3ccc(C(=O)O)cc3)nc12 [Example 153, 4-{7-[3-(4-tert-Butyl-benzoylamino)-2-methyl-phenyl]-3H-imidazo[4,5-b]pyridin-2-yl}-benzoic acid]	< 100	< 100	–	> 5000	100 to 1000	–
Cn1cc(-c2nc3c(-c4ccc(CNC(=O)N5CC(OC(C)(C)C)C5)c(F)c4)ccnc3[nH]2)cn1 [Example 55, 3-(tert-Butoxy)-N-([2-fluoro-4-[2-(1-methyl-1H-pyrazol-4-yl)-3H-imidazo[4,5-b]pyridin-7-yl]phenyl]methyl)azetidine-1-carboxamide]	–	–	–	100 to 1000	1000 to 5000	–
Cc1ccc(-n2ccn(-c3cccc(-c4ccnc5[nH]c(-c6ccc(C(=O)N7CCOCC7)cc6)nc45)c3C)c2=O)cc1 [Example 95, 1-[2-Methyl-3-(2-[4-[(morpholin-4-yl)carbonyl]phenyl]-3H-imidazo[4,5-b]pyridin-7-yl)phenyl]-3-(4-methylphenyl)-2,3-dihydro-1H-imidazol-2-one]	1000 to 5000	1000 to 5000	–	–	< 100	–
CC(C)(C)c1nnc(C(=O)NCc2ccc(-c3ccnc4[nH]c(C5=CCOCC5)nc34)cc2F)o1 [Example 138, 5-(tert-butyl)-N-(4-(2-(3,6-dihydro-2H-pyran-4-yl)-3H-imidazo[4,5-b]pyridin-7-yl)-2-fluorobenzyl)-1,3,4-oxadiazole-2-carboxamide]	–	< 100	40	100 to 1000	–	–
O=C(c1ccc(-c2nc3c(-c4cccc(N5CCc6cc(C7CC7)ccc6C5=O)c4CO)ccnc3[nH]2)cc1)N1CCOCC1 [Example 6, 6-Cyclopropyl-2-(2-hydroxymethyl-3-{2-[4-(morpholine-4-carbonyl)-phenyl]-3H-imidazo[4,5-b]pyridin-7-yl}-phenyl)-3,4-dihydro-2H-isoquinolin-1-one]	< 100	< 100	–	1000 to 5000	100 to 1000	–
CC(C)(C)c1ccc2c(c1)CCN(Cc1ccc(-c3ccnc4[nH]c(-c5ccc(C(=O)N6CCOCC6)cc5)nc34)cc1)C2=O [Example 115, 6-tert-Butyl-2-(4-{2-[4-(morpholine-4-carbonyl)-phenyl]-3H-imidazo[4,5-b]pyridin-7-yl}-benzyl)-3,4-dihydro-2H-isoquinolin-1-one]	< 100	< 100	–	100 to 1000	< 100	–
CC(C)(C)c1nc(C(=O)NCc2ccc(-c3ccnc4[nH]c(-c5ccc(N6CCC(O)CC6)cn5)nc34)cc2F)no1 [Example 84, 5-tert-butyl-N-[(2-fluoro-4-[2-[5-(4-hydroxypiperidin-1-yl)pyridin-2-yl]-3H-imidazo[4,5-b]pyridin-7-yl]phenyl)methyl]-1,2,4-oxadiazole-3-carboxamide]	< 100	< 100	–	< 100	–	585
CC(C)(O)CCN1Cc2cc(-c3ccnc4[nH]c(-c5ccc(C(=O)N6CCOCC6)cc5)nc34)ccc2C1=O [Example 114, 2-(3-Hydroxy-3-methyl-butyl)-5-{2-[4-(morpholine-4-carbonyl)-phenyl]-3H-imidazo[4,5-b]pyridin-7-yl}-2,3-dihydro-isoindol-1-one]	> 5000	> 5000	–	–	1000 to 5000	–
Cn1cc(-c2nc3c(-c4ccc(CNC(=O)c5cc(C(C)(C)C)no5)c(F)c4)ccnc3[nH]2)cn1 [Example 144, 3-(tert-butyl)-N-(2-fluoro-4-(2-(1-methyl-1H-pyrazol-4-yl)-3H-imidazo[4,5-b]pyridin-7-yl)benzyl)isoxazole-5-carboxamide]	–	–	49	–	–	–
Cc1c(NC(=O)c2ccc(C(C)(C)C)cc2)cccc1-c1ccnc2[nH]c(-c3cnn(C)c3)nc12 [Example 9, 4-tert-Butyl-N-{2-methyl-3-[2-(1-methyl-1H-pyrazol-4-yl)-3H-imidazo[4,5-b]pyridin-7-yl]-phenyl}-benzamide]	–	–	–	1000 to 5000	100 to 1000	–
CC(C)(C)c1ccc(C(=O)NCc2ccc(-c3ccnc4[nH]c(-c5ccc(C(=O)N6CCOCC6)cc5)nc34)cc2F)cc1 [Example 118, 4-tert-Butyl-N-(2-fluoro-4-{2-[4-(morpholine-4-carbonyl)-phenyl]-3H-imidazo[4,5-b]pyridin-7-yl}-benzyl)-benzamide]	< 100	< 100	–	< 100	< 100	–
CC1CN(c2ccc(-c3nc4c(-c5ccc(CNC(=O)c6noc(C(C)(C)C)n6)c(F)c5)ccnc4[nH]3)nc2)CC(C)O1 (stereo not drawn) [Example 81, 5-tert-Butyl-N-[(4-[2-[5-(2,6-dimethylmorpholin-4-yl)pyridin-2-yl]-3H-imidazo[4,5-b]pyridin-7-yl]-2-fluorophenyl)methyl]-1,2,4-oxadiazole-3-carboxamide]	< 100	< 100	15	< 100	–	–
CC(C)(C)c1nc(C(=O)NCc2ccc(-c3ccnc4[nH]c(-c5ccc(N6CCC(F)(F)CC6)cn5)nc34)cc2F)no1 [Example 82, 5-tert-Butyl-N-[(4-[2-[5-(4,4-difluoropiperidin-1-yl)pyridin-2-yl]-3H-imidazo[4,5-b]pyridin-7-yl]-2-fluorophenyl)methyl]-1,2,4-oxadiazole-3-carboxamide]	–	< 100	7.3	< 100	–	–
CN(C)c1ccc(-c2nc3c(-c4ccc(CNC(=O)c5noc(C(C)(C)C)n5)c(F)c4)ccnc3[nH]2)nc1 [Example 146, 5-tert-Butyl-[1,2,4]oxadiazole-3-carboxylic acid 4-[2-(5-dimethylamino-pyridin-2-yl)-3H-imidazo[4,5-b]pyridin-7-yl]-2-fluoro-benzylamide]	–	< 100	11	100 to 1000	–	–
CN1CC=C(c2ccc(-c3nc4c(-c5cccc(N6CCOc7cc(C8CC8)cc(F)c7C6=O)c5CO)ccnc4[nH]3)cc2)CC1 [Example 3, 8-Cyclopropyl-6-fluoro-4-[2-(hydroxymethyl)-3-[2-[4-(1-methyl-1,2,3,6-tetrahydropyridin-4-yl)phenyl]-3H-imidazo[4,5-b]pyridin-7-yl]phenyl]-2,3,4,5-tetrahydro-1,4-benzoxazepin-5-one]	–	< 100	–	100 to 1000	100 to 1000	–
Cn1cc(-c2nc3c(-c4ccc(CN5Cc6cc(C(C)(C)C)sc6C5=O)c(F)c4)ccnc3[nH]2)cn1 [Example 92, 2-tert-Butyl-5-([2-fluoro-4-[2-(1-methyl-1H-pyrazol-4-yl)-3H-imidazo[4,5-b]pyridin-7-yl]phenyl]methyl)-4H,5H,6H-thieno[2,3-c]pyrrol-6-one]	< 100	< 100	29	100 to 1000	–	–
Cc1c(NC(=O)c2ccc(C(C)(C)C)cc2)cccc1-c1ccnc2[nH]c(-c3ccc(C(=O)N4CCOCC4)cc3)nc12 [Example 5, 4-(tert-butyl)-N-(2-methyl-3-(2-(4-(morpholine-4-carbonyl)phenyl)-3H-imidazo[4,5-b]pyridin-7-yl)phenyl)benzamide]	–	–	–	1000 to 5000	< 100	–
